Here are results for two compounds from US9427468B2, “Compositions and methods for diagnosing and treating community-acquired methicillin-resistant Staphylococcus aureus” (priority 2007, dated 2016).

Converted amounts (≈) assume the structure as drawn.

One assay relates to PBP4. The note with it: cited from earlier work.
The next assay concerns MW2 ex Δpbp3. In words: MIC by microdilution (CLSI). Format: cell-based. The note with it: Staphylococcus aureus, read-out: MICs. The text has this: (§1) Experiments were first performed using mutants of various PBPs. In-frame deletion mutants of the genes encoding PBP3 (MW1504) and PBP4 (MW0604), pbp3 and pbp4 respectively, were generated in the CA-MRSA strain MW2 and in HA-MRSA strain COL using the temperature-sensitive allelic replacement vector pMAD (Arnaud, M. et al. 2004. Appl. Environ. Microbiol. 70:6887-6891). PBP4 was also deleted in the HA-MRSA strains Mu50 and N315 and in the CA-MRSA strain USA300. […] Minimum inhibitory concentrations (MICs) were determined according to the Clinical and Laboratory Standards Institute and are a standard method for defining antibiotic efficacy against different organisms. Bacteria, grown to an OD650=1, were added to cation-supplemented Mueller Hinton broth (CSMHB) to achieve a final concentration of 5×10^5 CFU/ml.
(§2) Minimum inhibitory concentrations and minimum bactericidal concentrations (MIC and MBC, respectively) were determined for each isolate in triplicate by microdilution techniques with an inoculum of 5×10^5 CFU/ml according to the Clinical and Laboratory Standards Institute guidelines. Aliquots (5 μl) from clear wells were plated onto TSA drug-free plates for the determination of MBCs, followed by incubation at 37° C. for 24 and 48 hours. For the mutant strains, each one of the three clones was tested. MIC data were reported as median values from at least three independent experiments for each antibiotic. Also, strains containing pEPSA5-based plasmids were tested with and without xylose induction, but chloramphenicol was not added to avoid interference with beta-lactam resistance evaluation. […] The correct inocula were confirmed by plating serial dilutions on agar.
In general terms: Dilution methods test growth across graded concentrations, often in twofold steps.

The subject of assay [1] is MW2 ex (MW2 cured of plasmid pMW2). In words: MIC by microdilution (CLSI). In kind it is cell-based. The conditions noted are these: Staphylococcus aureus, Table 1.
Text: as §1, §2

For assay [2], the system named is MRSA252 HA-MRSA. In words: MIC and synergy assay. Format: cell-based, Staphylococcus aureus. The conditions noted are these: for combination: MIC of oxacillin with ¼ MIC cefoxitin. As for the experimental part: as §2
The test system of another assay is COL HA-MRSA. In words: Minimum bactericidal concentration (MBC). Format: cell-based, Staphylococcus aureus. The note with it: for combination: MBC of oxacillin with ¼ MIC cefoxitin. As for the experimental part:
as §2

Assay [3] deals with MRSA252 HA-MRSA. In words: Minimum bactericidal concentration (MBC). Format: cell-based, Staphylococcus aureus. The note with it: for combination: MBC of oxacillin with ¼ MIC cefoxitin. As for the experimental part: as §2
Another assay deals with Mu50 HA-MRSA/VISA. In words: Minimum bactericidal concentration (MBC). Format: cell-based, Staphylococcus aureus. The note with it: for combination: MBC of oxacillin with ¼ MIC cefoxitin. As for the experimental part:
as §2

The test system of the next assay is USA300 Δpbp4::pbp4. In words: MIC by microdilution (CLSI). Format: cell-based, Staphylococcus aureus. The conditions noted are these: Table 1; USA300 Δpbp4::pbp4 (complemented).
Text: as §1, with “The present invention was described based on a series of experiments examining the biological basis for CA-MRSA strains versus HA-MRSA strains, focusing on the role of PBPs in CA-MRSA and generally in β-lactam resistance. Experiments” for “Experiments”
as §2

Another assay concerns MW2 Δpbp4::pbp4. In words: MIC by microdilution (CLSI). Format: cell-based, Staphylococcus aureus. The note with it: Table 1; MW2 Δpbp4::pbp4 (complemented).
Text: as §1, with “The present invention was described based on a series of experiments examining the biological basis for CA-MRSA strains versus HA-MRSA strains, focusing on the role of PBPs in CA-MRSA and generally in β-lactam resistance. Experiments” for “Experiments”
as §2

The next assay has as its system MW2 Δpbp4. In words: MIC by microdilution (CLSI). Format: cell-based, Staphylococcus aureus.
Text: as §1, with “The present invention was described based on a series of experiments examining the biological basis for CA-MRSA strains versus HA-MRSA strains, focusing on the role of PBPs in CA-MRSA and generally in β-lactam resistance. Experiments” for “Experiments”
as §2

A further assay relates to MW2 Δpbp3. In words: MIC by microdilution (CLSI). In kind it is cell-based, Staphylococcus aureus. The conditions noted are these: Table 1; MW2 Δpbp3.
Text: as §1, with “The present invention was described based on a series of experiments examining the biological basis for CA-MRSA strains versus HA-MRSA strains, focusing on the role of PBPs in CA-MRSA and generally in β-lactam resistance. Experiments” for “Experiments”
as §2

A further assay deals with USA300 Δpbp4. In words: MIC by microdilution (CLSI). Format: cell-based, Staphylococcus aureus.
Text: as §1, with “The present invention was described based on a series of experiments examining the biological basis for CA-MRSA strains versus HA-MRSA strains, focusing on the role of PBPs in CA-MRSA and generally in β-lactam resistance. Experiments” for “Experiments”
as §2

The next assay concerns MW2 Δpbp3/4. In words: MIC by microdilution (CLSI). The note with it: Table 1, MW2 Δpbp3/4. Format: cell-based, Staphylococcus aureus.
Text: as §1, with “The present invention was described based on a series of experiments examining the biological basis for CA-MRSA strains versus HA-MRSA strains, focusing on the role of PBPs in CA-MRSA and generally in β-lactam resistance. Experiments” for “Experiments”
as §2

Regarding `CO[C@@]1(NC(=O)Cc2cccs2)C(=O)N2C(C(=O)O)=C(COC(N)=O)CS[C@@H]21` [CX, cefoxitin], in the assay on PBP4, the “affinity for PBP4” value is recorded as “high affinity”. Moreover, the MIC with MW2 ex Δpbp3 came out at 32 µg/mL (≈ 74.9 µM); in assay [1], 16 µg/mL (≈ 37.4 µM).
In the case of `Cc1onc(-c2ccccc2)c1C(=O)N[C@@H]1C(=O)N2[C@@H]1SC(C)(C)[C@@H]2C(=O)O` [OX, oxacillin], in the assay with MRSA252 HA-MRSA [2], the “MICs 48 hr” value came to 256 µg/mL. Moreover, the “MBC 48 hr” value with COL HA-MRSA, in the assay on MRSA252 HA-MRSA [3] and in the assay on Mu50 HA-MRSA/VISA was above 256 µg/mL each time. In addition, the MICs amounted to 64 µg/mL against USA300 Δpbp4::pbp4; 64 µg/mL against MW2 Δpbp4::pbp4; 4 µg/mL with MW2 Δpbp4 (Table 1, MW2 Δpbp4); 4 µg/mL against MW2 Δpbp4 (pbp4 mutant of MW2 with pbp2 expressed from inducible plasmid pEPSA5); 64 µg/mL in the assay with MW2 Δpbp3; 4 µg/mL with USA300 Δpbp4 (Table 1, USA300 Δpbp4). Moreover, the MICs with USA300 Δpbp4 (pbp4 mutant of USA300 with pbp2 expressed from inducible plasmid pEPSA5) was 4 µg/mL; in the assay on MW2 Δpbp3/4, 4 µg/mL; in the assay with MW2 Δpbp3/4 (listed as oxacillin), 1 µg/mL. Also, the “reduction in MIC on loss of pbp4” value in the assay on MW2 Δpbp4 (MW2 Δpbp4 versus MW2) and in the assay on USA300 Δpbp4 (USA300 Δpbp4 versus USA300) was 16 fold throughout.
